# Data from paper PMC4501319, “Discovery of Selective Small-Molecule Activators of a Bacterial Glycoside Hydrolase” (Angewandte Chemie (International Ed. in English), 2014).
# “And” between values parts separate entries of the source, which are not always exact repeats. Identical values can stand only once.
# Key:
# BtGH84 [1] = target: T1, BtGH84 (Bacteroides thetaiotaomicron, UniProt Q89ZI2); assay: 4MU-GlcNAc cleavage assay (fluorescent kinetic enzyme activity assay); assay type: biochemical; details: for Vmax(app): Michaelis–Menten fit, 1 % DMSO, substrate 50 μM to 2 mM, activator concentration 2 mM; for Kd: affinity of activator to the substrate-bound enzyme, read-out: αKA; for Vmax / α / β: non-essential activator equation fit to covariation experiments; for Vmax: activator 50 µM to 2 mM; for α: modifies KM; for β: modifies Vmax/kcat; for Emax: read-out: Maximum activation
# T1 construct: made in house
# Protocol: AC50 measurements of fragment activators were performed using a fluorescent kinetic assay. Assays were carried out in a 96 well plate (Black Nunc F96 MicroWell Plates) at 25°C in a total volume of 100 μl per well, buffer (50 mM MES pH 6.5, 200 mM NaCl, 0.01% Tween-20, 1% DMSO) with 500 μM 4-methylumbelliferyl-β-D-GlcNAc (4MU-GlcNAc), as substrate and 50 nM BtGH84. Reactions were initiated by addition of 10 μl of substrate, to a final concentration of 500 μM, followed by 5 s of shaking. Fluorescent 4-methylumbelliferyl release was recorded continuously at 355 nm excitation and 460 nm emission for 20 s using a BMG PolarStar Optima plate reader. Rates were calculated using Sigmaplot as the slope of the curve of the collected data. Corrections were made to the detected gradients to adjust for the inner filter effect of 4MU-GlcNAc and convert the gradients into units of μmol min-1 according to a standard curve of 4MU. […]
# Kinetic experiments using 4MU-GlcNAc were carried out in an analogous manner except that reactions were initiated by a 10 μl injection of BtGH84, to a final concentration of 50 nM, in a well containing the substrate at the desired concentration. Values quoted throughout are mean and standard deviation of three independent […]
# Apparent KM and Vmax values were calculated from a Michalis-Menten curve fit to 8-10 point substrate titrations at a constant concentration of the activator. The covariation experiments used the same range of substrate concentrations across an activator concentration range of 50 µM to 2 mM. The data obtained from these experiments was fit to the nonessential activator equation: […]
# Here, [S] is the concentration of the […], [A] the concentration of the activator, α modifies KM, β modifies Vmax and KA is the half-max concentration of the activator. […]
# BtGH84 [2] = target: T1, BtGH84; assay: Affinity by NMR spectroscopy using proton relaxation rates R2; assay type: binding
# Protocol: (§1) Compounds in the fragment library were purchased from Specs, additional structural neighbours were purchased from Specs and Enamine. O-(2-Acetamido-2-deoxy-D-glucopyranosylidene) amino-Z-N-phenylcarbamate (PUGNAc) was purchased from Tocris Bioscience.
# (§2) The fragment library was assembled as described by Schulz et al.[1] and dissolved in DMSO-d6 to a concentration of 200 mM and quality controlled using 1H NMR spectroscopy. Instant JChem 5.3.8, 2010, ChemAxon (http://www.chemaxon.com), was used for structure database management.
# (§3) NMR spectroscopy and fragment screening
# (§4) NMR experiments were carried out on a Bruker Avance II 700 MHz NMR spectrometer equipped with a triple resonance probe and z axis gradients. Data were processed using Topspin 3.2 software. Three NMR experiments were used for the screening, STD NMR,[2] PO-WaterLOGSY,[3] and T1ρ-filtered[4] 1H NMR experiments. […] The experiments were recorded using the standard STD NMR pulse sequence with a 15 ms 6 kHz spin-lock pulse to reduce the background protein resonances and excitation sculpting to suppress the water resonance. […]
# Figure S3. Dissociation constant of 2 for BtGH84 determined in the presence of PUGNAc with 1H R2 relaxation rates. […]
# [3] = tested on: β-N-Acetylglucosaminidase from Canavalia ensiformis (Jack bean); assay: 4MU-GlcNAc substrate titration with commercially available β-N-acetylglucosaminidase; assay type: biochemical; details: 4MU-GlcNAc substrate titration at pH 4.9 and pH 6.5
# Text: Figure S8: Effect of activators 2 and 4 on a β-N-Acetylglucosaminidase from Canavalia ensiformis (Jack
# (B) titration at the same pH as used for the BtGH84 studies (pH 6.5).
# Enzyme supplied by Sigma (purified from native source).
# (1 picture or pasted object on this page, not shown here)
# Aqueous solubility = assay type: physicochemical
# BtGH84 [4] = target: T1, BtGH84; assay: STD NMR competition between activators; assay type: binding; details: in the presence of 2 (25 mM) as competitor
# Protocol: as §1, §2, §3
# as §4, with “experiments. All NMR screening data were collected at 288K and the samples contained 20 μM BtGH84, fragments at a concentration of approximately 200 μM per compound and 20 μM of TSP in 25 mM phosphate buffer containing 150 mM NaCl and 10% D2O at pH 7.4.” for “experiments.”
# [5] = titration of activator from 50 μM to 2 mM, substrate concentration 500 μM
# T1 sequence (Q89ZI2 22-737, change not shown): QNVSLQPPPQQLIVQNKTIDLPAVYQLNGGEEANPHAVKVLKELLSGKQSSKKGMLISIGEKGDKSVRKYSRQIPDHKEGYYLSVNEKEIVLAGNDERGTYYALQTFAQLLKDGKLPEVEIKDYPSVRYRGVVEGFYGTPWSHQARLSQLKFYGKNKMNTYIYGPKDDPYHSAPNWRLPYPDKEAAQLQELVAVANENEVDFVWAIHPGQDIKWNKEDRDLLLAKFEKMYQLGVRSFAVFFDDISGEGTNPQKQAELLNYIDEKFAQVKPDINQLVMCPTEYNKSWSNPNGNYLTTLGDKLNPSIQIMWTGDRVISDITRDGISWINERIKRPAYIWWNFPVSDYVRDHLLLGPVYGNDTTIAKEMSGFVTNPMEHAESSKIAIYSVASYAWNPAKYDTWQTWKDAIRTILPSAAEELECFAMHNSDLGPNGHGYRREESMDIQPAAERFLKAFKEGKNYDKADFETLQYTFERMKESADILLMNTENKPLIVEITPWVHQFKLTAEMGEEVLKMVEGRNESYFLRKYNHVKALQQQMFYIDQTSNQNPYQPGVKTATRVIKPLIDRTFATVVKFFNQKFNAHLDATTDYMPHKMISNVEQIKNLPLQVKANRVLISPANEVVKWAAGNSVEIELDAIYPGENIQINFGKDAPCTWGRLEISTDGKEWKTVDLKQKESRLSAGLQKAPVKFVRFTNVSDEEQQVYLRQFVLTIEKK
Compound,"AC50 (BtGH84 [1]; activation, 4MU-GlcNAc substrate concentration 500 μM)","affinity for BtGH84 (BtGH84 [2]; in the absence of PUGNAc, compared with presence of PUGNAc)","Kd (BtGH84 [2]; in the presence of PUGNAc (200 μM), 8 μM BtGH84, 298 K) [µM]",activation of β-N-acetylglucosaminidase [3],Vmax(app) (BtGH84 [1]) [µmol/min],Kd (BtGH84 [1]; covariation experiments),βkcat (BtGH84 [1]; covariation experiments) [s⁻¹],Vmax (BtGH84 [1]) [µmol/min],α (BtGH84 [1]),β (BtGH84 [1]),AC50 (BtGH84 [1]; [5]) [µM],Emax (BtGH84 [1]; [5]) [%],aqueous solubility (Aqueous solubility; compared to the original activator 2),"highest concentration attainable at 1% DMSO (Aqueous solubility; enzyme assay buffer, 1% DMSO) [mM]",saturation transfer (STD NMR signal) from BtGH84 to activator (BtGH84 [4]),"enhancement of substrate binding in the presence of the activator (BtGH84 [1]; from α, covariation experiments) [fold]","increase of kcat in the presence of the activator (BtGH84 [1]; from β, covariation experiments) [fold]"
"CCOc1ncnc2ccccc12 [Compound 2, 4-ethoxyquinazoline]",3500 µM and ~3500 µM,weaker,3100 ± 700,do not increase the activity,–,–,–,–,–,–,–,–,–,–,–,–,–
CCOc1ncnc2sc(C)c(C)c12 [Compound 3],–,–,–,–,0.022 ± 0.001,1090 µM,88.7,0.019 ± 0.0007,0.061 ± 0.04,1.4 ± 0.1,575 ± 78,284,poor,2,–,–,–
Cc1sc2ncnc(N3CCOCC3)c2c1C [Compound 4],–,–,–,do not increase the activity,0.026 ± 0.002,~200 µM and 224 µM,100,0.018 ± 0.002,0.14 and 0.14 ± 0.02,1.7 and 1.7 ± 0.1,259 ± 24,371,–,–,significantly diminished,~7,1.7
CCc1cc2c(N3CCOCC3)ncnc2s1 [Compound 5],–,–,–,–,0.024 ± 0.001,~200 µM and 205 µM,75.8,0.018 ± 0.0008,0.17 ± 0.02,1.3 ± 0.07,274 ± 12,329,–,–,clear loss in signal intensity,–,–
c1nc(N2CCOCC2)c2ccsc2n1 [Compound 6],–,–,–,–,0.015 ± 0.002,–,–,–,–,–,702 ± 85,234,–,–,–,–,–
